Measurements as given in BindingDB's records for doi:10.1124/mol.62.4.947 (National Cancer Institute-Bethesda, 2002).

Target: Transient receptor potential cation channel subfamily V member 1 (Rattus norvegicus, UniProt O35433)
Sequence (O35433 whole entry): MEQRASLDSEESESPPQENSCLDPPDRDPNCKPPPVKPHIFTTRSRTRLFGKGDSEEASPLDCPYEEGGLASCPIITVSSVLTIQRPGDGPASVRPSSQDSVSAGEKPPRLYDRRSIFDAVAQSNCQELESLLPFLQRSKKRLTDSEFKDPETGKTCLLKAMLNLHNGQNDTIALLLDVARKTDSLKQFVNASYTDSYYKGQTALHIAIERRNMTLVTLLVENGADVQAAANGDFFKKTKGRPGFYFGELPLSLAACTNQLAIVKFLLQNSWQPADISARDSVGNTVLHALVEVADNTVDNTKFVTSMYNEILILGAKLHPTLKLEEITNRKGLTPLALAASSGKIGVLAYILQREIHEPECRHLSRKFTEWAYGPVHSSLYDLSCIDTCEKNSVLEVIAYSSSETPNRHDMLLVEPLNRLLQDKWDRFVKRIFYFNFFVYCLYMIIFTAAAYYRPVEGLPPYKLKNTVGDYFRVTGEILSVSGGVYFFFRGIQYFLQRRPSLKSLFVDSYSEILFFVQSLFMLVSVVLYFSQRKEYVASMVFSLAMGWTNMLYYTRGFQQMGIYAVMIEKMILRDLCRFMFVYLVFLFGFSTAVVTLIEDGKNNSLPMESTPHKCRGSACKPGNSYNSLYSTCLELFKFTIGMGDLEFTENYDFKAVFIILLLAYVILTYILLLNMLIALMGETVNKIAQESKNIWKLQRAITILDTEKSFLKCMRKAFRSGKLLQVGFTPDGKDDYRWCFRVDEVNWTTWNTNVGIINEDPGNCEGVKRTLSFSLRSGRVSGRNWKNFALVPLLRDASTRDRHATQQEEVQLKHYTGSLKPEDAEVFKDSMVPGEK

Ki: 9.2 nM
SMILES: CC(C)(C)c1ccc(CNC(=S)NCc2ccc(NS(C)(=O)=O)c(F)c2)cc1 [JYL1421]
